Reference: patent publication US11198695B2, “Fused ring derivative having MGAT-2 inhibitory activity” (Shionogi & Co., Ltd., priority 2017, dated 2021)

Biological target: recombinant human MGAT2 (Homo sapiens (Human), UniProt Q3SYC2)
Assay: Measurement of human MGAT2 inhibitory activity
Format: biochemical
Settings: read-out: IC50 (concentration exhibiting 50% enzyme inhibition), Table 52
Procedure: A full-length human MGAT2 gene to which a Flag-tag had been added at the N-terminal was inserted into pFastBac (from Invitrogen). A recombinant baculovirus was produced in accordance with the protocol for a Bac-to-Bac baculovirus expression system (produced by Invitrogen), and Sf-9 cells were infected therewith. The cells were collected and sonicated, and then the membrane fraction was collected through centrifugation. Western blotting analysis with an anti-Flag antibody was performed for the membrane fraction to confirm expression, and the membrane fraction was used as a recombinant human MGAT2 enzyme solution.
Solutions of the compounds of the present invention in DMSO were each aliquoted into 0.2-μL portions in a 384-well polystyrene microplate produced by Corning Incorporated, and 5 μL of an enzyme solution prepared with an assay buffer (100 mmol/L phosphate buffer (pH 7.4) containing 2 mmol/L DTT) and 5 μL of a substrate solution (100 mmol/L phosphate buffer (pH 7.4), 30 μmol/L 2-Oleoylglycerol, 10 μmol/L Oleoyl-CoA) were added thereto, and the resultant was stirred and centrifuged, and incubated in a moist chamber at room temperature for 1 hour. After enzymatic reaction, 50 μL of a quenching solution (containing 0.2 μmol/L Diolein-d5, 0.4% formic acid, and 50% isopropanol) containing Internal Standard (IS) was added to terminate the reaction, and the resultant was sealed in a plate produced by Shimadzu GLC Ltd., and then stirred and centrifuged, and measurement was performed by using an electrospray ionization method with a RapidFire360 and Agilent 6550 Q-TOF mass spectrometer. Diolein as a reaction product (P) of 2-Oleoylglycerol as the substrate and an ammonium adduct ion of the IS were detected, and the peak intensity ratio, P/IS, was calculated from the peak heights to evaluate the inhibitory activity. Inhibitory activities with/without addition of enzyme were defined as Control (+)/Control (−), respectively, and the respective % inhibitions were defined as 0% inhibition and 100% inhibition. The inhibitory activity was calculated from formula below with TIBCO Spotfire (produced by TIBCO Software Inc.): Inhibitory activity (%)=[1−{Sample−Control(−)}/{Control(+)−Control(−)}]*100 where Sample indicates a peak intensity ratio: P/IS, when the compound of the present invention was added.

recombinant human MGAT2, sequence (Q3SYC2 whole entry): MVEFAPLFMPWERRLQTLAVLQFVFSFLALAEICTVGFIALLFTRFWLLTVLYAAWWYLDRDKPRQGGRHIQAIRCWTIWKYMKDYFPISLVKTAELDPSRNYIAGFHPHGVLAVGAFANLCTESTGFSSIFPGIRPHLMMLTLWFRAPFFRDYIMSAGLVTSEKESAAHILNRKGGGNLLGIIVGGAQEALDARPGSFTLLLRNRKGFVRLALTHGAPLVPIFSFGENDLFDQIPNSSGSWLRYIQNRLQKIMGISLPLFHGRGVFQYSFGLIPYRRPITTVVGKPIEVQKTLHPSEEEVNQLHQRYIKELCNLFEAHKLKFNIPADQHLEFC

Structure (SMILES)	IC50
O=C1N[C@@]2(CCc3cc(OCC(F)(F)F)ccc32)Cc2nn(CCC3CC3)c(C(=O)NS(=O)(=O)Cc3ccccc3)c21 [Compound I-119]	150 nM
O=C1N[C@@]2(CCc3cc(OCC(F)(F)F)ccc32)Cc2nn(CCC3CC3)c(C(=O)NS(=O)(=O)C3CCC3)c21 [Compound I-121]	47 nM
CS(=O)(=O)CC(=O)Nc1c2c(nn1-c1ccc(C#N)cn1)C[C@@]1(CCc3cc(N4CC(C(F)(F)F)C4)ccc31)NC2=O [Compound I-122]	1.8 nM
CS(=O)(=O)CC(=O)Nc1c2c(nn1-c1cccc(Cl)c1)C[C@]1(CCc3cc(OCC(F)(F)F)ccc31)NC2=O [Compound I-124]	22 nM
CS(=O)(=O)CC(=O)Nc1c2c(nn1-c1cccc(C(F)(F)F)c1)C[C@]1(CCc3cc(OCC(F)(F)F)ccc31)NC2=O [Compound I-125]	525 nM
CS(=O)(=O)CC(=O)Nc1c2c(nn1-c1cc(F)cc(F)c1)C[C@]1(CCc3cc(OCC(F)(F)F)ccc31)NC2=O [Compound I-127]	105 nM
CS(=O)(=O)CC(=O)Nc1c2c(nn1-c1ccc(F)c(F)c1)C[C@]1(CCc3cc(OCC(F)(F)F)ccc31)NC2=O [Compound I-131]	5.2 nM
CS(=O)(=O)CC(=O)Nc1c2c(nn1-c1ccc(C#N)cc1)C[C@]1(CCc3cc(OCC(F)(F)F)ccc31)NC2=O [Compound I-133]	14 nM
Cc1ccnc(-n2nc3c(c2NC(=O)CS(C)(=O)=O)C(=O)N[C@@]2(CCc4cc(OCC(F)(F)F)ccc42)C3)c1 [Compound I-135]	3.1 nM
CS(=O)(=O)CC(=O)Nc1c2c(nn1CCCC(F)(F)F)C[C@@]1(CCc3cc(OCC(F)(F)F)cc(F)c31)NC2=O [Compound I-136]	4.1 nM
CCc1ccc(-n2nc3c(c2NC(=O)CS(C)(=O)=O)C(=O)N[C@@]2(CCc4cc(OCCCC(F)(F)F)ccc42)C3)cc1 [Compound I-139]	4.1 nM
O=C1N[C@@]2(CCc3cc(OCC(F)(F)F)ccc32)Cc2nn(CCC3CC3)c(CNS(=O)(=O)C3CCCC3)c21 [Compound I-140]	730 nM
CC(C)S(=O)(=O)NCc1c2c(nn1CCC1CC1)C[C@]1(CCc3cc(OCC(F)(F)F)ccc31)NC2=O [Compound I-141]	430 nM
O=C1N[C@@]2(CCc3cc(OCC(F)(F)F)ccc32)Cc2nn(CCC3CC3)c(CNS(=O)(=O)C3CCOCC3)c21 [Compound I-142]	270 nM
O=C1N[C@@]2(CCc3cc(OCC(F)(F)F)ccc32)Cc2nn(CCC3CC3)c(CNS(=O)(=O)CCO)c21 [Compound I-144]	400 nM
O=C1N[C@@]2(CCc3cc(OCC(F)(F)F)ccc32)Cc2nn(CCC3CC3)c(CNC(=O)C3CC3)c21 [Compound I-145]	83 nM

Structure (SMILES)	IC50
Cc1ccccc1C(=O)NCc1c2c(nn1CCC1CC1)C[C@]1(CCc3cc(OCC(F)(F)F)ccc31)NC2=O [Compound I-146]	420 nM
O=C(NCc1c2c(nn1CCC1CC1)C[C@]1(CCc3cc(OCC(F)(F)F)ccc31)NC2=O)c1cccc(O)c1 [Compound I-149]	690 nM
O=C(NCc1c2c(nn1CCC1CC1)C[C@]1(CCc3cc(OCC(F)(F)F)ccc31)NC2=O)c1ncco1 [Compound I-150]	100 nM
O=C(NCc1c2c(nn1CCC1CC1)C[C@]1(CCc3cc(OCC(F)(F)F)ccc31)NC2=O)c1ccon1 [Compound I-151]	180 nM
O=C(NCc1c2c(nn1CCC1CC1)C[C@]1(CCc3cc(OCC(F)(F)F)ccc31)NC2=O)c1ccno1 [Compound I-152]	300 nM
N#CC1(C(=O)NCc2c3c(nn2CCC2CC2)C[C@]2(CCc4cc(OCC(F)(F)F)ccc42)NC3=O)CC1 [Compound I-153]	240 nM
O=C(NCc1c2c(nn1CCC1CC1)C[C@]1(CCc3cc(OCC(F)(F)F)ccc31)NC2=O)c1cocn1 [Compound I-154]	530 nM
O=C1N[C@@]2(CCc3cc(OCC(F)(F)F)ccc32)Cc2nn(CCC3CC3)c(CNC(=O)C3(O)CC3)c21 [Compound I-156]	920 nM
O=C1N[C@@]2(CCc3cc(OCC(F)(F)F)ccc32)Cc2nn(CCC3CC3)c(CNC(=O)C3(C(F)(F)F)CC3)c21 [Compound I-157]	38 nM
O=C1N[C@@]2(CCc3cc(OCC(F)(F)F)ccc32)Cc2nn(CCC3CC3)c(CNC(=O)C3(C(F)(F)F)CCC3)c21 [Compound I-158]	130 nM
O=C1N[C@@]2(CCc3cc(OCC(F)(F)F)ccc32)Cc2nn(CCC3CC3)c(CNC(=O)C3CS(=O)(=O)C3)c21 [Compound I-161]	430 nM
CS(=O)(=O)CC(=O)Nc1c2c(nn1-c1ccc(C#N)cn1)C[C@]1(CCc3cc(N4CC(C(F)(F)F)C4)ccc31)NC2=O [Compound I-168]	5.9 nM
CS(=O)(=O)CC(=O)Nc1c2c(nn1-c1ccccn1)C[C@@]1(CCc3cc(OCC(F)(F)F)cc(F)c31)NC2=O [Compound I-169]	9.8 nM
CS(=O)(=O)CC(=O)Nc1c2c(nn1CCC1CC1)C[C@](c1ccc(OCC(F)(F)F)cc1F)(C(F)(F)F)NC2=O [Compound I-171]	12 nM
CS(=O)(=O)CC(=O)Nc1c2c(nn1Cc1ccc(C(F)(F)F)o1)C[C@]1(CCc3cc(OCCCC(F)(F)F)ccc31)NC2=O [Compound I-173]	78 nM
COc1ccc(C(=O)Nc2c3c(nn2CCC2CC2)C[C@]2(CCc4cc(OCCCC(F)(F)F)ccc42)NC3=O)cc1 [Compound I-174]	63.7 nM

Further molecules by falling IC50, results first:

IC50	Structure (SMILES)
710 nM	CS(=O)(=O)CC(=O)Nc1c2c(nn1-c1cccc(OC(F)(F)F)c1)C[C@]1(CCc3cc(OCC(F)(F)F)ccc31)NC2=O [Compound I-126]
600 nM	O=C(NCc1c2c(nn1CCC1CC1)C[C@]1(CCc3cc(OCC(F)(F)F)ccc31)NC2=O)c1cnco1 [Compound I-159]
550 nM	CS(=O)(=O)NCc1c2c(nn1CCC1CC1)C[C@]1(CCc3cc(OCC(F)(F)F)ccc31)NC2=O [Compound I-138]
510 nM	O=C1N[C@@]2(CCc3cc(OCC(F)(F)F)ccc32)Cc2nn(CCC3CC3)c(CNS(=O)(=O)C3CCC3)c21 [Compound I-143]
505 nM	CS(=O)(=O)CC(=O)Nc1c2c(nn1-c1cc(C(F)(F)F)cc(C(F)(F)F)c1)C[C@]1(CCc3cc(OCC(F)(F)F)ccc31)NC2=O [Compound I-130]
480 nM	Cn1cc(C(=O)Nc2c3c(nn2CCC2CC2)C[C@]2(CCc4cc(OCC(F)(F)F)ccc42)NC3=O)nn1 [Compound I-172]
340 nM	Cc1cccc(-n2nc3c(c2NC(=O)CS(C)(=O)=O)C(=O)N[C@@]2(CCc4cc(OCC(F)(F)F)ccc42)C3)n1 [Compound I-134]
180 nM	CC(C)(O)C(=O)NCc1c2c(nn1CCC1CC1)C[C@]1(CCc3cc(OCC(F)(F)F)ccc31)NC2=O [Compound I-155]
86 nM	CS(=O)(=O)CC(=O)Nc1c2c(nn1-c1ccc(C#N)cc1)C[C@]1(CCc3cc(F)cc(F)c31)NC2=O [Compound I-164]
78 nM	CC(C)(C#N)C(=O)NCc1c2c(nn1CCC1CC1)C[C@]1(CCc3cc(OCC(F)(F)F)ccc31)NC2=O [Compound I-160]
55.5 nM	CS(=O)(=O)CC(=O)Nc1c2c(nn1-c1cccc(F)c1)C[C@]1(CCc3cc(OCC(F)(F)F)ccc31)NC2=O [Compound I-123]
46 nM	CCS(=O)(=O)NC(=O)c1c2c(nn1CCC1CC1)C[C@]1(CCc3cc(OCC(F)(F)F)ccc31)NC2=O [Compound I-120]
40.5 nM	CS(=O)(=O)CC(=O)Nc1c2c(nn1-c1cc(Cl)cc(Cl)c1)C[C@]1(CCc3cc(OCC(F)(F)F)ccc31)NC2=O [Compound I-128]
39 nM	O=C1N[C@@]2(CCc3cc(OCC(F)(F)F)ccc32)Cc2nn(CCC3CC3)c(CNC(=O)C3CCC3)c21 [Compound I-147]
26.5 nM	Cc1cc(C)cc(-n2nc3c(c2NC(=O)CS(C)(=O)=O)C(=O)N[C@@]2(CCc4cc(OCC(F)(F)F)ccc42)C3)c1 [Compound I-129]
9.65 nM	Cc1ccc(-n2nc3c(c2NC(=O)CS(C)(=O)=O)C(=O)N[C@@]2(CCc4cc(OCC(F)(F)F)ccc42)C3)cc1C [Compound I-132]
7.1 nM	CS(=O)(=O)CC(=O)Nc1c2c(nn1CCC1CC1)C[C@@]1(CCc3cc(N4CC(C(F)(F)F)C4)ccc31)NC2=O [Compound I-166]
5.6 nM	O=C(CC(F)(F)F)NCc1c2c(nn1CCC1CC1)C[C@]1(CCc3cc(OCC(F)(F)F)ccc31)NC2=O [Compound I-148]
5.2 nM	CS(=O)(=O)CC(=O)Nc1c2c(nn1CCC1CC1)C[C@@]1(CCc3cc(N4CC(F)(F)C4)ccc31)NC2=O [Compound I-165]
3.6 nM	CS(=O)(=O)CC(=O)Nc1c2c(nn1-c1ccc(C#N)cn1)C[C@]1(CCc3cc(N4CC(F)(F)C4)ccc31)NC2=O [Compound I-163]
1.9 nM	CS(=O)(=O)CC(=O)Nc1c2c(nn1-c1ccc(C#N)cn1)C[C@]1(CCc3cc(OCC(F)(F)F)cc(F)c31)NC2=O [Compound I-162]
1.7 nM	CS(=O)(=O)CC(=O)Nc1c2c(nn1-c1ccc(C#N)cn1)C[C@@]1(CCc3cc(OCC(F)(F)F)cc(F)c31)NC2=O [Compound I-137]
